From patent US8551984B2, “Aminopyrimidines as SYK inhibitors” (Merck Sharp & Dohme Corp., priority 2009, dated 2013) come the findings set out here.

The test deals with recombinant human SYK (GST-hSYK fusion protein) (Homo sapiens, UniProt P43405). Description: biochemical. Conditions: rhSYK Activity.

Text: Homogeneous Time-Resolved Fluorescence (HTRF) Assay for the Recombinant Human SYK Enzyme:

`Cc1cc(Nc2nccc(C(F)(F)F)n2)cc(-c2cnc(C3(O)CCCN(S(N)(=O)=O)CC3)s2)c1` (stereo not shown) [Example 54D-115]: the IC50 (as a rule, the midpoint of a concentration-inhibition curve) (Table 54D) is < 100 nM.
Still for that read-out and setting: the figure for `Cc1cc(Nc2nccc(C(F)(F)F)n2)cc(-c2cnc(C3(O)CCCN(S(=O)(=O)O)CC3)s2)c1` (stereo not shown) [Example 54D-118] is < 100 nM.
For the compound `Cc1cc(Nc2nccc(C(F)(F)F)n2)cc(-c2cnc(C3(O)CCCN(C(=O)CO)CC3)s2)c1` (stereo not shown) [Example 54D-121], where the note is “Table 54D”, the 50% inhibitory concentration (IC50) is < 100 nM.
As for `Cc1cc(Nc2nccc(C(F)(F)F)n2)cc(-c2cnc([C@]3(O)CC[C@@H](NC(=O)[C@@H](C)O)CC3)s2)c1` [Example 54E-1], for the setting “Table 54E”, the half-maximal inhibitory concentration (IC50) is < 100 nM.
Same read-out and setting: under `Cc1cc(Nc2nccc(C(F)(F)F)n2)cc(-c2cnc(C3(O)CCC(NC(=O)CC(N)=O)CC3)s2)c1` (stereo not shown) [Example 54E-3] stands < 100 nM; under `Cc1cc(Nc2nccc(C(F)(F)F)n2)cc(-c2cnc([C@]3(O)CC[C@@H](NC(=O)c4ncc[nH]4)CC3)s2)c1` [Example 54E-4], < 100 nM.
The same measure, in the same setting: under `Cc1cc(Nc2nccc(C(F)(F)F)n2)cc(-c2cnc([C@]3(O)CC[C@@H](NC(=O)c4c[nH]cn4)CC3)s2)c1` [Example 54E-5] stands < 100 nM; under `Cc1cc(Nc2nccc(C(F)(F)F)n2)cc(-c2cnc([C@]3(O)CC[C@@H](NC(=O)c4c[nH]nn4)CC3)s2)c1` [Example 54E-6], < 100 nM; under `Cc1cc(Nc2nccc(C(F)(F)F)n2)cc(-c2cnc(C3(O)CCC(NC(=O)C4CC(O)C4)CC3)s2)c1` (stereo not shown) [Example 54E-7], < 100 nM.
Take `Cc1cc(Nc2nccc(C(F)(F)F)n2)cc(-c2cnc(C3(O)CCC(NC(=O)CCC(N)=O)CC3)s2)c1` (stereo not shown) [Example 54E-8]: where the note is “Table 54E”, the IC50 was < 100 nM.
On the same count and under the same terms, under `Cc1cc(Nc2nccc(C(F)(F)F)n2)cc(-c2cnc([C@]3(O)CC[C@@H](NC(=O)c4ccccc4)CC3)s2)c1` [Example 54E-9] stands < 100 nM; under `Cc1cc(Nc2nccc(C(F)(F)F)n2)cc(-c2cnc([C@]3(O)CC[C@@H](NC(=O)Cc4c[nH]cn4)CC3)s2)c1` [Example 54E-10], < 100 nM.
Same read-out and setting: the figure for `Cc1cc(Nc2nccc(C(F)(F)F)n2)cc(-c2cnc(C3(O)CCC(NC(=O)Cn4cncn4)CC3)s2)c1` (stereo not shown) [Example 54E-11] is < 100 nM.
The same measure, in the same setting: under `Cc1cc(Nc2nccc(C(F)(F)F)n2)cc(-c2cnc([C@]3(O)CC[C@@H](NC(=O)Cn4ccnn4)CC3)s2)c1` [Example 54E-12] stands < 100 nM; under `Cc1cc(Nc2nccc(C(F)(F)F)n2)cc(-c2cnc(C3(O)CCC(NC(=O)Cn4cnnn4)CC3)s2)c1` (stereo not shown) [Example 54E-13], < 100 nM.
In the case of `Cc1cc(Nc2nccc(C(F)(F)F)n2)cc(-c2cnc([C@]3(O)CC[C@@H](NC(=O)C4CCCCC4)CC3)s2)c1` [Example 54E-14], the IC50 (Table 54E) was < 100 nM.
`Cc1cc(Nc2nccc(C(F)(F)F)n2)cc(-c2cnc(C3(O)CCC(NC(=O)C4CNC(=O)N4)CC3)s2)c1` (stereo not shown) [Example 54E-15]: the 50% inhibitory concentration (IC50) (Table 54E) was < 100 nM.
In the case of `Cc1cc(Nc2nccc(C(F)(F)F)n2)cc(-c2cnc(C3(O)CCC(NC(=O)C4CCCCO4)CC3)s2)c1` (stereo not shown) [Example 54E-16], under “Table 54E”, the concentration for half-maximal inhibition (IC50) is < 100 nM.
The same measure, in the same setting: under `Cc1cc(Nc2nccc(C(F)(F)F)n2)cc(-c2cnc(C3(O)CCC(NC(=O)CC4CCCO4)CC3)s2)c1` (stereo not shown) [Example 54E-17] stands < 100 nM.
Regarding `Cc1cc(Nc2nccc(C(F)(F)F)n2)cc(-c2cnc(C3(O)CCC(NC(=O)C(C)(CO)CO)CC3)s2)c1` (stereo not shown) [Example 54E-20], the IC50 (Table 54E) is < 100 nM.
Same read-out and setting: under `Cc1cc(Nc2nccc(C(F)(F)F)n2)cc(-c2cnc([C@]3(O)CC[C@@H](NC(=O)Cc4ccccn4)CC3)s2)c1` [Example 54E-21] stands < 100 nM; under `Cc1cc(Nc2nccc(C(F)(F)F)n2)cc(-c2cnc([C@]3(O)CC[C@@H](NC(=O)CS(C)(=O)=O)CC3)s2)c1` [Example 54E-22], < 100 nM.
On the same count and under the same terms, under `Cc1cc(Nc2nccc(C(F)(F)F)n2)cc(-c2cnc([C@]3(O)CC[C@@H](NC(=O)Cc4ncccn4)CC3)s2)c1` [Example 54E-23] stands < 100 nM.
Consider `Cc1cc(Nc2nccc(C(F)(F)F)n2)cc(-c2cnc([C@]3(O)CC[C@@H](NC(=O)c4ccc(O)cn4)CC3)s2)c1` [Example 54E-24], for which, where the note is “Table 54E”, the half-inhibitory concentration (IC50) was < 100 nM.
Still for that read-out and setting: the figure for `Cc1cc(Nc2nccc(C(F)(F)F)n2)cc(-c2cnc(C3(O)CCC(NC(=O)c4cccc(O)n4)CC3)s2)c1` (stereo not shown) [Example 54E-25] is < 100 nM.
With `Cc1cc(Nc2nccc(C(F)(F)F)n2)cc(-c2cnc([C@]3(O)CC[C@@H](NC(=O)CCc4cn[nH]c4)CC3)s2)c1` [Example 54E-26], the IC50 (Table 54E) was < 100 nM.
As to `Cc1cc(Nc2nccc(C(F)(F)F)n2)cc(-c2cnc(C3(O)CCC(NC(=O)CCn4cncn4)CC3)s2)c1` (stereo not shown) [Example 54E-27], the half-inhibitory concentration (IC50) (Table 54E) is < 100 nM.
Same read-out and setting: the figure for `Cc1cc(Nc2nccc(C(F)(F)F)n2)cc(-c2cnc(C3(O)CCC(NC(=O)C4CCCC(=O)N4)CC3)s2)c1` (stereo not shown) [Example 54E-28] is < 100 nM; for `Cc1cc(Nc2nccc(C(F)(F)F)n2)cc(-c2cnc(C3(O)CCC(NC(=O)CC4CCOCC4)CC3)s2)c1` (stereo not shown) [Example 54E-29] it is < 100 nM.
Still for that read-out and setting: under `Cc1cc(Nc2nccc(C(F)(F)F)n2)cc(-c2cnc(C3(O)CCC(NC(=O)C(O)C(F)(F)F)CC3)s2)c1` (stereo not shown) [Example 54E-30] stands < 100 nM; under `Cc1cc(Nc2nccc(C(F)(F)F)n2)cc(-c2cnc(C3(O)CCC(NC(=O)CCC(=O)N(C)C)CC3)s2)c1` (stereo not shown) [Example 54E-31], < 100 nM; under `C#Cc1ccc(C(=O)NC2CCC(O)(c3ncc(-c4cc(C)cc(Nc5nccc(C(F)(F)F)n5)c4)s3)CC2)cc1` (stereo not shown) [Example 54E-32], < 100 nM.
Consider `Cc1cc(Nc2nccc(C(F)(F)F)n2)cc(-c2cnc([C@]3(O)CC[C@@H](NC(=O)c4ccc(C#N)cc4)CC3)s2)c1` [Example 54E-33], for which the IC50 (Table 54E) was < 100 nM.
On the same count and under the same terms, under `Cc1cc(Nc2nccc(C(F)(F)F)n2)cc(-c2cnc(C3(O)CCC(NC(=O)c4cc(O)ccc4F)CC3)s2)c1` (stereo not shown) [Example 54E-35] stands < 100 nM; under `Cc1cc(Nc2nccc(C(F)(F)F)n2)cc(-c2cnc([C@]3(O)CC[C@@H](NC(=O)c4ccc(O)c(F)c4)CC3)s2)c1` [Example 54E-36], < 100 nM; under `Cc1cc(Nc2nccc(C(F)(F)F)n2)cc(-c2cnc(C3(O)CCC(NC(=O)CC(N)C(F)(F)F)CC3)s2)c1` (stereo not shown) [Example 54E-37], < 100 nM.
Same read-out and setting: the figure for `COC(=O)C1CCC(C(=O)NC2CCC(O)(c3ncc(-c4cc(C)cc(Nc5nccc(C(F)(F)F)n5)c4)s3)CC2)CC1` (stereo not shown) [Example 54E-38] is < 100 nM.
For the compound `Cc1cc(Nc2nccc(C)n2)cc(-c2cnc(C3(O)CCC3)s2)c1` [Example 56-1], the half-inhibitory concentration (IC50) (Table 56) is < 100 nM.
As for `CCc1ccnc(Nc2cc(C)cc(-c3cnc(C4(O)CCC4)s3)c2)n1` [Example 56-2], under “Table 56”, the half-maximal inhibitory concentration (IC50) was < 100 nM.
Same read-out and setting: under `Cc1cc(Nc2nccc(C3CC3)n2)cc(-c2cnc(C3(O)CCC3)s2)c1` [Example 56-3] stands < 100 nM.
Regarding `Cc1cc(Nc2nccc(C(F)(F)F)n2)cc(-c2cnc(C3(N)CCC3)s2)c1` [Example 61B-1, N-{3-[2-(1-aminocyclobutyl)-1,3-thiazol-5-yl]-5-methylphenyl}-4-(trifluoromethyl)pyrimidin-2-amine], the IC50 (Table 61B) is < 100 nM.
Same read-out and setting: the figure for `Cc1cc(Nc2nccc(C(F)(F)F)n2)cc(-c2cnc(C3(NS(=O)(=O)CC(F)(F)F)CCC3)s2)c1` [Example 61B-2] is < 100 nM.
On the same count and under the same terms, under `Cc1cc(Nc2nccc(C(F)(F)F)n2)cc(-c2cnc(C3(NS(=O)(=O)CF)CCC3)s2)c1` [Example 61B-3] stands < 100 nM; under `Cc1cc(Nc2nccc(C(F)(F)F)n2)cc(-c2cnc(C3(NS(C)(=O)=O)CCC3)s2)c1` [Example 61B-4], < 100 nM.
Turning to `Cc1cc(Nc2nccc(C(F)(F)F)n2)cc(-c2cnc(C3(NS(=O)(=O)C(F)(F)F)CCC3)s2)c1` [Example 61B-5], where the note is “Table 61B”, the IC50 was < 100 nM.
`Cc1cc(Nc2nccc(C(F)(F)F)n2)cc(-c2cnc(C3(NS(=O)(=O)CC(F)(F)F)COC3)s2)c1` [Example 61B-7]: the IC50 (Table 61B) was < 100 nM.
The same measure, in the same setting: the figure for `Cc1cc(Nc2nccc(C(F)(F)F)n2)cc(-c2cnc(C3(N[S+]([O-])C(F)F)COC3)s2)c1` (stereo not shown) [Example 61B-8] is < 100 nM; for `CS(=O)(=O)NC1(c2ncc(-c3cccc(Nc4nccc(C(F)(F)F)n4)c3)s2)COC1` [Example 61B-9] it is < 100 nM; for `COc1nc(Nc2cc(C)cc(-c3cnc(C4(N)COC4)s3)c2)ncc1Cl` [Example 61B-10] it is < 100 nM.
Turning to `Cc1cc(Nc2ncccn2)cc(-c2cnc(C3(N)CCC3)s2)c1` [Example 62-1], the IC50 (Table 62) is < 100 nM.
For `COc1ccnc(Nc2cc(C)cc(-c3cnc(C4(N)CCC4)s3)c2)n1` [Example 62-2], for the setting “Table 62”, the 50% inhibitory concentration (IC50) is < 100 nM.
As to `Cc1cc(Nc2ncc(F)c(C)n2)cc(-c2cnc(C3(NS(N)(=O)=O)COC3)s2)c1` [Example 63-1], under “Table 63”, the IC50 was < 100 nM.
As to `COc1nc(Nc2cc(C)cc(-c3cnc(C4(NS(N)(=O)=O)COC4)s3)c2)ncc1Cl` [Example 63-2], the IC50 (Table 63) is < 100 nM.
For `Cc1cc(Nc2nccc(C(F)(F)F)n2)cc(-c2cnc(C3(NS(N)(=O)=O)CCC3)s2)c1` [Example 63-3], the half-inhibitory concentration (IC50) (Table 63) is < 100 nM.
Take `Cc1cc(Nc2nccc(C(F)(F)F)n2)cc(-c2cnc(C(NS(N)(=O)=O)(C3CC3)C3CC3)s2)c1` [Example 63-4]: the IC50 (Table 63) was < 100 nM.
For the compound `Cc1cc(Nc2nccc(C(F)(F)F)n2)cc(-c2cnc(C3(NC(N)=O)COC3)s2)c1` [Example 64-1], the IC50 (Table 64, first part) is < 100 nM.
Still for that read-out and setting: under `Cc1cc(Nc2nccc(C3CC3)n2)cc(-c2cnc(C3(NC(N)=O)CCC3)s2)c1` [Example 64-2] stands < 100 nM; under `Cc1cc(Nc2ncccn2)cc(-c2cnc(C3(NC(N)=O)CCC3)s2)c1` [Example 64-3], < 100 nM; under `Cc1cc(Nc2ncc(F)c(C3CC3)n2)cc(-c2cnc(C3(NC(N)=O)CCC3)s2)c1` [Example 64-6], < 100 nM.
Consider `NC(=O)NC1(c2ncc(-c3cc(F)cc(Nc4ncc(F)c(C5CC5)n4)c3)s2)CCC1` [Example 64-7], for which the IC50 (Table 64, first part) is < 100 nM.
The same measure, in the same setting: the figure for `COc1nc(Nc2cc(C)cc(-c3cnc(C4(NC(N)=O)CCC4)s3)c2)ncc1Cl` [Example 64-8] is < 100 nM.
